From the kinase profiling compilation of Christmann-Franck et al. (2016)

What was measured:
Assay in all cases: radiometric filter-binding kinase assay, Kinaseprofiler
CSNK1D (rat) = settings: accession and sequence are those of the human protein
CSNK2A2 (human) = CSNK2A2 (human) (UniProt P19784); settings: ATP 10 µM
CDC42BPB (human) = CDC42BPB (human) (UniProt Q9Y5S2); settings: ATP 10 µM
[1] = tested on: SGK1 (human), O00141 [S422D]; settings: ATP 90 µM
ZAP70 (human) = ZAP70 (human) (UniProt P43403); settings: ATP 15 µM
MAP2K6 (human) = MAP2K6 (human) (UniProt P52564); settings: ATP 10 µM
STK10 (human) = STK10 (human) (UniProt O94804); settings: ATP 200 µM
FES (human) = FES (human) (UniProt P07332); settings: ATP 45 µM
[2] = tested on: RPS6KB1 (human), P23443 [T412E]; settings: ATP 15 µM
EPHA4 (human) = EPHA4 (human) (UniProt P54764); settings: ATP 15 µM
CAMK2D (human) = CAMK2D (human) (UniProt Q13557); settings: ATP 10 µM
[3] = biological target: PRKAA2 PRKAB1 PRKAG1 (human) (UniProt P54619+P54646+Q9Y478); settings: ATP 45 µM
KDR (human) = KDR (human) (UniProt P35968); settings: ATP 90 µM
[4] = biological target: PRKAA1 PRKAB1 PRKAG1 (human) (UniProt P54619+Q13131+Q9Y478); settings: ATP 45 µM
PRKCB1 (human) = PRKCB1 (human) (UniProt P05771); settings: ATP 10 µM
NTRK1 (human) = NTRK1 (human) (UniProt P04629); settings: ATP 120 µM
EPHA1 (human) = EPHA1 (human) (UniProt P21709); settings: ATP 45 µM
ACVR1B (human) = ACVR1B (human) (UniProt P36896); settings: ATP 10 µM
PRKCZ (human) = PRKCZ (human) (UniProt Q05513); settings: ATP 15 µM
MTOR FKBP1A (human) = MTOR FKBP1A (human) (UniProt P42345+P62942); settings: ATP 45 µM
PRKCB2 (human) = PRKCB2 (human) (UniProt P05771); settings: ATP 10 µM
PIM2 (human) = PIM2 (human) (UniProt Q9P1W9); settings: ATP 15 µM
CSF1R (human) = CSF1R (human) (UniProt P07333); settings: ATP 200 µM
RET (human) = RET (human) (UniProt P07949); settings: ATP 70 µM
MAPKAPK3 (human) = MAPKAPK3 (human) (UniProt Q16644); settings: ATP 90 µM
[5] = tested on: IRAK4 (human), Q9NWZ3 [A81V]; settings: ATP 200 µM
CLK2 (human) = CLK2 (human) (UniProt P49760); settings: ATP 15 µM
HCK (human) = HCK (human) (UniProt P08631)
TLK2 (human) = TLK2 (human) (UniProt Q86UE8); settings: ATP 10 µM
MYLK (human) = MYLK (human) (UniProt Q15746); settings: ATP 70 µM
EPHB3 (human) = EPHB3 (human) (UniProt P54753); settings: ATP 90 µM
EPHB1 (human) = EPHB1 (human) (UniProt P54762); settings: ATP 200 µM
EPHB1 (human), sequence (P54762 whole entry, looked up): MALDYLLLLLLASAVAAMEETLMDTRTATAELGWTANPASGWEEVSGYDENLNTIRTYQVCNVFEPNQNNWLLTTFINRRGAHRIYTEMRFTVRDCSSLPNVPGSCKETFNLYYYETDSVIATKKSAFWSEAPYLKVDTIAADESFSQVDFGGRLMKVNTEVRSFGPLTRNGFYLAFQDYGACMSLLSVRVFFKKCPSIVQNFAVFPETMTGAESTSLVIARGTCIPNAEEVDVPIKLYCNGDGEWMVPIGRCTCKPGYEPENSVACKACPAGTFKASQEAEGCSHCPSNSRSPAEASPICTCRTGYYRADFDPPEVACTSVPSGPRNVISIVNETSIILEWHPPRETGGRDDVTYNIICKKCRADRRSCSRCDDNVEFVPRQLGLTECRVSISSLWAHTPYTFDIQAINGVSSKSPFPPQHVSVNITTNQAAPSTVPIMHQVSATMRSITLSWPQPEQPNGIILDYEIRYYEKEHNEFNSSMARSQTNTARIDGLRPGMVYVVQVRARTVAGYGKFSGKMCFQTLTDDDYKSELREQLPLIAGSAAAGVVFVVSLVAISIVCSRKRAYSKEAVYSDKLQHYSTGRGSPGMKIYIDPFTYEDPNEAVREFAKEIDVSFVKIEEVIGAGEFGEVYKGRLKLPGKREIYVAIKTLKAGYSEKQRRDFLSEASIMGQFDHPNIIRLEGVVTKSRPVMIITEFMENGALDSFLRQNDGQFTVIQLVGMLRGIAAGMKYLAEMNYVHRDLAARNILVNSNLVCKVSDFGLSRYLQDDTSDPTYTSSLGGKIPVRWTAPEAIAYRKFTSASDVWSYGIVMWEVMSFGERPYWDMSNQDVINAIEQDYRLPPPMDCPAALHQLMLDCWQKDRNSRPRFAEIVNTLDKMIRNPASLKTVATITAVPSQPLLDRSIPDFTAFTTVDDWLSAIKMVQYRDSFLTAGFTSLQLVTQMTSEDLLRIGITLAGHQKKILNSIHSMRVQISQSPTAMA

HCK (human), sequence (P08631 whole entry, looked up): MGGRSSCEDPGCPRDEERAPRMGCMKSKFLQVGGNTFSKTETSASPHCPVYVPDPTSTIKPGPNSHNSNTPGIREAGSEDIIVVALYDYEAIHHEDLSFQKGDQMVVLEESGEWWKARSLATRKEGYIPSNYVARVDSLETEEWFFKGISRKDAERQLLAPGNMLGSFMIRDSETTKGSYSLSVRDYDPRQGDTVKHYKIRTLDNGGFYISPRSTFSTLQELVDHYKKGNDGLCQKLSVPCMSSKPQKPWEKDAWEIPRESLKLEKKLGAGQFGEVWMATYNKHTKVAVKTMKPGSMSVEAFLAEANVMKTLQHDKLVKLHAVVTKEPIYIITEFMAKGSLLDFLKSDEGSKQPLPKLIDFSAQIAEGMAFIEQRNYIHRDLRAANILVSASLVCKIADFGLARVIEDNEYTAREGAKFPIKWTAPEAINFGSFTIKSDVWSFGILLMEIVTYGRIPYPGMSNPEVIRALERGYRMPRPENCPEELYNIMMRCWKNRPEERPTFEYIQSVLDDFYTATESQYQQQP
PIM2 (human), sequence (Q9P1W9 whole entry, looked up): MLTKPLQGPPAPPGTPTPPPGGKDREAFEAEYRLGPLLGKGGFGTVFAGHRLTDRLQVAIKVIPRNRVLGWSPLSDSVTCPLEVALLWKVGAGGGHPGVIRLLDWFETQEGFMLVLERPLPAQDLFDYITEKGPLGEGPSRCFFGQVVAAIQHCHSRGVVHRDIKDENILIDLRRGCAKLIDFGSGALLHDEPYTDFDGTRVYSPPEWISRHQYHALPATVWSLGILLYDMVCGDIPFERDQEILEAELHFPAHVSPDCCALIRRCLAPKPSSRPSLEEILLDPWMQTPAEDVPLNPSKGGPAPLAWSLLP
PRKCZ (human), sequence (Q05513 whole entry, looked up): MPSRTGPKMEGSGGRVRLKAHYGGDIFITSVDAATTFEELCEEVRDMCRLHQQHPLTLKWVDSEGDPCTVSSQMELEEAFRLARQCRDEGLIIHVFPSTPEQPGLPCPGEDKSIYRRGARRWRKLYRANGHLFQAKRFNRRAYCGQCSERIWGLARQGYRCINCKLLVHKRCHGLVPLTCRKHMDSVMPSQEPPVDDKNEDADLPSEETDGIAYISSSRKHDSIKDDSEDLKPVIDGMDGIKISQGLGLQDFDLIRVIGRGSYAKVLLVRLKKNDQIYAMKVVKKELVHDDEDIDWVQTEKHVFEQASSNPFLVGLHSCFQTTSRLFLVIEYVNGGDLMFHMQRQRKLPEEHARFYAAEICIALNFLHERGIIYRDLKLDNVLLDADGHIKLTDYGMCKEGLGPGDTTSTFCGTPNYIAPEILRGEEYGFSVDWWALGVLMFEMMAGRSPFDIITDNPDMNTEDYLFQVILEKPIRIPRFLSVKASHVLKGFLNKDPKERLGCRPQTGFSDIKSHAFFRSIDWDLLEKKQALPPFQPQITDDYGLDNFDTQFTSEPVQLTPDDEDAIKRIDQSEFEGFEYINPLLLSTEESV
MAPKAPK3 (human), sequence (Q16644 whole entry, looked up): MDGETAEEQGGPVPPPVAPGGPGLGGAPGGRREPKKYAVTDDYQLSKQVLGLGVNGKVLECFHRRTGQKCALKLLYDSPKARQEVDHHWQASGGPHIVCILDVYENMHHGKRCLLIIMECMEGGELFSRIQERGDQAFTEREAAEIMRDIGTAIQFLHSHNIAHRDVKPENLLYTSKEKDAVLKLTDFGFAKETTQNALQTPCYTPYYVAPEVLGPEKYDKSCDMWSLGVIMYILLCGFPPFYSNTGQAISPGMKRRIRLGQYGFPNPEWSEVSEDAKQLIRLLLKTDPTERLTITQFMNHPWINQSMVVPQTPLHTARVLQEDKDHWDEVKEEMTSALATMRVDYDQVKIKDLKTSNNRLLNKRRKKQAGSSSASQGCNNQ
IRAK4 (human), Q9NWZ3 [A81V], sequence (Q9NWZ3 whole entry, looked up, stated change not applied): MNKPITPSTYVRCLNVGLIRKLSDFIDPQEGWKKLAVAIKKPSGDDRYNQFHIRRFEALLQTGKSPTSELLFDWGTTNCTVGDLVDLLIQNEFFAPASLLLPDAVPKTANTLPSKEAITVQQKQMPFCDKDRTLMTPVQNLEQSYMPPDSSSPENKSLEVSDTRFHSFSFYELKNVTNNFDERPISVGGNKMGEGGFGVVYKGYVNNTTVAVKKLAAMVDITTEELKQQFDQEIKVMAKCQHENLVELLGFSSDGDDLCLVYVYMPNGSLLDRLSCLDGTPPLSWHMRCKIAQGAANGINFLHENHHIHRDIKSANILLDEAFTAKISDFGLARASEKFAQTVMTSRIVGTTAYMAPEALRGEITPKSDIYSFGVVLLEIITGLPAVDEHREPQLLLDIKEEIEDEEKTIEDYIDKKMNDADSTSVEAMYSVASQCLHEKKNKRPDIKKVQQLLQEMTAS
CSNK2A2 (human), sequence (P19784 whole entry, looked up): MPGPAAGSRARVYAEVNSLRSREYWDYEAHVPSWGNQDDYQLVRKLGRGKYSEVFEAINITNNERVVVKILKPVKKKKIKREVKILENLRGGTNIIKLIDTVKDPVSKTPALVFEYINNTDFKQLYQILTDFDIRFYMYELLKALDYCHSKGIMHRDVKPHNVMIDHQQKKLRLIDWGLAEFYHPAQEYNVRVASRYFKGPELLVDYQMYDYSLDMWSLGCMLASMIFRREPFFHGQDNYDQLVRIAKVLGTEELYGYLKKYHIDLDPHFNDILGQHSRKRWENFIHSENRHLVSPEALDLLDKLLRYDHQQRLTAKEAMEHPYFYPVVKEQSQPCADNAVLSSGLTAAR
RET (human), sequence (P07949 whole entry, looked up): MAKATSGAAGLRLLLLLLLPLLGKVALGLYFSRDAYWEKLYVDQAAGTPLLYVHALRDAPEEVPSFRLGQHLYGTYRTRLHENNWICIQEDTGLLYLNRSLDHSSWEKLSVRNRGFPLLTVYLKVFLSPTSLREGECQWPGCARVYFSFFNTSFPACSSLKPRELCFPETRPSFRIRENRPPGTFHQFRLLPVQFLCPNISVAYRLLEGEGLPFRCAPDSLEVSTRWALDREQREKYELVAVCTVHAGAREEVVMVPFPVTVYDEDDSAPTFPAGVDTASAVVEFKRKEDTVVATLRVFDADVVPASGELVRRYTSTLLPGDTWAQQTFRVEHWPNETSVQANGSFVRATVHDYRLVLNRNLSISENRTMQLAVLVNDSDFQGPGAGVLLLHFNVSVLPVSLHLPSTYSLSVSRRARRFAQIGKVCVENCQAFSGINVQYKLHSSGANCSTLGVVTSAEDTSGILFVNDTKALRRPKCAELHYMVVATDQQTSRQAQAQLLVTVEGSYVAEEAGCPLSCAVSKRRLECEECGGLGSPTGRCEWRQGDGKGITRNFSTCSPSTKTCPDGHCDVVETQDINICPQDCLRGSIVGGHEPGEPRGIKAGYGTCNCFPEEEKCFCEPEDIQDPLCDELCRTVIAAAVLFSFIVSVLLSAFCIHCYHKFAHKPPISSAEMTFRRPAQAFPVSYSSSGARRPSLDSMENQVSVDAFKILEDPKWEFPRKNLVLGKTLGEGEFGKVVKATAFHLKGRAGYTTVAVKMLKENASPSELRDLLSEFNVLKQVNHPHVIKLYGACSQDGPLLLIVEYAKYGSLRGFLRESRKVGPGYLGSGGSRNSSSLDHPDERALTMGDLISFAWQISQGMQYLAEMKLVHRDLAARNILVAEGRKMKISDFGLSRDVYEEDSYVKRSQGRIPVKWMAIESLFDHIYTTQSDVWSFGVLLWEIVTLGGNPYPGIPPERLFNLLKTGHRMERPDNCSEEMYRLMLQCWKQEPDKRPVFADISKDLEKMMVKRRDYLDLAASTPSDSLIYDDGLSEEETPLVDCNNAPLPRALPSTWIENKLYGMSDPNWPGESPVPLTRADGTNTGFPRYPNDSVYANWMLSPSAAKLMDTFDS
MTOR FKBP1A (human), sequence (P62942 whole entry, looked up, other chains not shown): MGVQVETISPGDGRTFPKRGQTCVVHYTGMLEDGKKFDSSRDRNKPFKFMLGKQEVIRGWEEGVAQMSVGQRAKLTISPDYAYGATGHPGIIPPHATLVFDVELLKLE

Compound: O=C1Nc2ccccc2/C1=C1\Nc2ccccc2\C1=N/O
- residual activity (CSNK1D (rat); compound 1.0 µM): 14%
- residual activity (CSNK1D (rat); compound 10.0 µM): 4%
- residual activity (CSNK2A2 (human); compound 1.0 µM): 102%
- residual activity (CSNK2A2 (human); compound 10.0 µM): 58%
- residual activity (CDC42BPB (human); compound 1.0 µM): 106%
- residual activity (CDC42BPB (human); compound 10.0 µM): 103%
- residual activity ([1]; compound 1.0 µM): 59%
- residual activity ([1]; compound 10.0 µM): 28%
- residual activity (ZAP70 (human); compound 1.0 µM): 79%
- residual activity (ZAP70 (human); compound 10.0 µM): 91%
- residual activity (MAP2K6 (human); compound 1.0 µM): 63%
- residual activity (MAP2K6 (human); compound 10.0 µM): 40%
- residual activity (STK10 (human); compound 1.0 µM): 66%
- residual activity (STK10 (human); compound 10.0 µM): 71%
- residual activity (FES (human); compound 1.0 µM): 72%
- residual activity (FES (human); compound 10.0 µM): 30%
- residual activity ([2]; compound 1.0 µM): 37%
- residual activity ([2]; compound 10.0 µM): 13%
- residual activity (EPHA4 (human); compound 1.0 µM): 96%
- residual activity (EPHA4 (human); compound 10.0 µM): 83%
- residual activity (CAMK2D (human); compound 1.0 µM): 10%
- residual activity (CAMK2D (human); compound 10.0 µM): 2%
- residual activity ([3]; compound 1.0 µM): 1%
- residual activity ([3]; compound 10.0 µM): 3%
- residual activity (KDR (human); compound 1.0 µM): 4%
- residual activity (KDR (human); compound 10.0 µM): 1%
- residual activity ([4]; compound 1.0 µM): 2%
- residual activity ([4]; compound 10.0 µM): 0%
- residual activity (PRKCB1 (human); compound 1.0 µM): 93%
- residual activity (PRKCB1 (human); compound 10.0 µM): 94%
- residual activity (NTRK1 (human); compound 1.0 µM): 0%
- residual activity (NTRK1 (human); compound 10.0 µM): 0%
- residual activity (EPHA1 (human); compound 1.0 µM): 55%
- residual activity (EPHA1 (human); compound 10.0 µM): 61%
- residual activity (ACVR1B (human); compound 1.0 µM): 104%
- residual activity (ACVR1B (human); compound 10.0 µM): 72%
- residual activity (PRKCZ (human); compound 1.0 µM): 101%
- residual activity (PRKCZ (human); compound 10.0 µM): 98%
- residual activity (MTOR FKBP1A (human); compound 1.0 µM): 117%
- residual activity (MTOR FKBP1A (human); compound 10.0 µM): 89%
- residual activity (PRKCB2 (human); compound 1.0 µM): 95%
- residual activity (PRKCB2 (human); compound 10.0 µM): 102%
- residual activity (PIM2 (human); compound 1.0 µM): 68%
- residual activity (PIM2 (human); compound 10.0 µM): 38%
- residual activity (CSF1R (human); compound 1.0 µM): 15%
- residual activity (CSF1R (human); compound 10.0 µM): 8%
- residual activity (RET (human); compound 1.0 µM): 1%
- residual activity (RET (human); compound 10.0 µM): 0%
- residual activity (MAPKAPK3 (human); compound 1.0 µM): 117%
- residual activity (MAPKAPK3 (human); compound 10.0 µM): 88%
- residual activity ([5]; compound 1.0 µM): 41%
- residual activity ([5]; compound 10.0 µM): 6%
- residual activity (CLK2 (human); compound 1.0 µM): 14%
- residual activity (CLK2 (human); compound 10.0 µM): 4%
- residual activity (HCK (human); compound 1.0 µM, ATP 45 µM): 8%
- residual activity (HCK (human); compound 1.0 µM, ATP 70 µM): 15%
- residual activity (HCK (human); compound 10.0 µM, ATP 45 µM): 1%
- residual activity (HCK (human); compound 10.0 µM, ATP 70 µM): 5%
- residual activity (TLK2 (human); compound 1.0 µM): 60%
- residual activity (TLK2 (human); compound 10.0 µM): 14%
- residual activity (MYLK (human); compound 1.0 µM): 46%
- residual activity (MYLK (human); compound 10.0 µM): 13%
- residual activity (EPHB3 (human); compound 1.0 µM): 105%
- residual activity (EPHB3 (human); compound 10.0 µM): 103%
- residual activity (EPHB1 (human); compound 1.0 µM): 59%
- residual activity (EPHB1 (human); compound 10.0 µM): 13%
